Test results taken from PMC6272137, “Synthesis and Evaluation of Paeonol Derivatives as Potential Multifunctional Agents for the Treatment of Alzheimer’s Disease” (Molecules, 2015).
Where two headings read alike, the source gives them in different places.

Legend:
[1] = DPPH free radical scavenging assay; conditions: read-out: DPPH Scavenging (IC50), concentration causing 50% loss of initial DPPH free radical, mean ± SD, n = 3, 60 min, methanol
Description: Based on their interaction with DPPH (2,2-diphenyl-1-picrylhydrazyl) free radical, antioxidant activities of the new paeonol derivatives were screened. […] Paeonol is used as the positive control.
The stable radical DPPH was used as a reagent in this spectrophotometric assay. […] After a 60 min incubation period at room temperature in the dark, the absorbance was read at 517 nm against the corresponding blank. Inhibition of free radical DPPH in percent (I%) was calculated using the following Equation (1): (1) I%=(Ablank−Asample/Ablank)×100 Where Ablank is the absorbance of DPPH solution (control solution) against the blank, and Asample is the absorbance of the tested compound against the blank. Concentrations caused 50% loss of the initial DPPH free radical scavenging.

AChE from electric eel = biological target: T1, AChE from electric eel (Electrophorus electricus, UniProt O42275); experiment: biochemical; conditions: n = 3, pH 8.0, 37 °C, read-out: AChE Inhibition (IC50)
T1 construct: purchased Sigma Aldrich
Description: Acetylcholinesterase (AChE, E.C.3.1.1.7, from the electric eel), 5,5'-dithiobis-(2-nitrobenzoic acid) (DTNB), acetylthiocholine iodide (ATCI) and donepezil hydrochloride were purchased from Sigma Aldrich. […] Paeonol and 5a–5d were dissolved in DMSO and then diluted by phosphate buffer (pH 8.0) to seven different concentrations in the range of 10^−3–10^−9 M. AChE solutions were prepared in double-distilled water to 2.0 units/mL in 2 mL aliquots. The assay medium contained phosphate buffer, pH 8.0 (1 mL), 50 µL of 0.01 M DTNB, 10 µL of enzyme and 50 µL of acetylthiocholine iodide. Test compounds were added to assay solution and preincubated at 37 °C with enzyme for 15 min, followed by the addition of substrate. Activity was determined by measuring the increase in absorbance at 412 nm at 1 min intervals at 37 ± 0.2 °C. For determining the blank value, 50 µL buffer replaced the AChE solution.

PC12 cells = experiment: Protection of PC12 cells against H2O2-induced cell death (MTT assay); conditions: then 150 μM H2O2 for 5 h; for cell morphology (phase-contrast microscopy): 40 µM compound, 3 h preincubation

T1 sequence (O42275 24-633): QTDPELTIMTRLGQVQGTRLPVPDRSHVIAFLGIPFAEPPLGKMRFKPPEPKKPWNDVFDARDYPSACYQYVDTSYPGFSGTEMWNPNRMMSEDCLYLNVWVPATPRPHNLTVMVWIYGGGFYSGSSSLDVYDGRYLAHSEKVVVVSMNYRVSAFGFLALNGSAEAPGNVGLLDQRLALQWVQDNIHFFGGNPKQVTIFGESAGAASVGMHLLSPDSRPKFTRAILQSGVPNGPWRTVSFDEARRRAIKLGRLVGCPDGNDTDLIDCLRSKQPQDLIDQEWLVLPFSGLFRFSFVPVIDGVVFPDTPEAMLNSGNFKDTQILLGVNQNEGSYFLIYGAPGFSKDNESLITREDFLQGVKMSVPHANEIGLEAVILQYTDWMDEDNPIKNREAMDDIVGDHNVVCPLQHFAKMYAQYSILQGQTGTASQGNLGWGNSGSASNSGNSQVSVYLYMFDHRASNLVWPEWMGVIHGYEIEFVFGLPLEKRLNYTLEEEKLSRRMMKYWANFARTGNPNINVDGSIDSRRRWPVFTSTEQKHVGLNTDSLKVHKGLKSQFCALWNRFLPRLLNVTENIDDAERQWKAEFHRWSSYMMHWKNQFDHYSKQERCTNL

| Structure (SMILES) | IC50 [1] | IC50 (AChE from electric eel) | cell morphology (phase-contrast microscopy) (PC12 cells) | protective effect on PC12 cells (MTT) (PC12 cells; 5 μM compound, 3 h pretreatment) | protective effect (cell viability, MTT) (PC12 cells; 40 μM compound, 3 h pretreatment, control cells = 100%) | IC50 ([1]; listed as paeonol) |
| --- | --- | --- | --- | --- | --- | --- |
| COc1ccc(C(=O)CN2CCN(Cc3ccccc3)CC2)c(O)c1 [5a, 2-(4-Benzylpiperazin-1-yl)-1-(2-hydroxy-4-methoxyphenyl) ethanone] | 143 ± 8.83 µM | 1.59 ± 0.011 µM | – | – | – | – |
| COc1ccc(C(=O)CN2CCN(Cc3ccc(C)cc3)CC2)c(O)c1 [5b, 1-(2-Hydroxy-4-methoxyphenyl)-2-(4-(4-methylbenzyl)piperazin-1-yl) ethanone] | 158 ± 6.88 µM | 0.61 ± 0.009 µM | maintained normal cell morphology | – | – | – |
| COc1ccc(C(=O)CN2CCN(Cc3ccc([N+](=O)[O-])cc3)CC2)c(O)c1 [5c, 1-(2-Hydroxy-4-methoxyphenyl)-2-(4-(4-nitrobenzyl)piperazin-1-yl) ethanone] | 192 ± 8.06 µM | 7.04 ± 0.032 µM | – | – | – | – |
| COc1ccc(C(=O)CN2CCN(Cc3ccc(Cl)cc3)CC2)c(O)c1 [5d, 2-(4-(4-Chlorobenzyl)piperazin-1-yl)-1-(2-hydroxy-4-methoxypheny) ethanone] | 187 ± 13.7 µM | 2.63 ± 0.153 µM | – | – | – | – |
| COc1ccc(C(C)=O)c(O)c1 [Paeonol, 2-hydroxy-4-methoxy-acetophenone] | 310 ± 5.41 µM | – | maintained normal cell morphology | did not cause any apparent effects | 58.9% | 310 µM |
